# Laboratory results from patent publication US7015228B2, “4-amino-2-(2-pyridyl)pyrimidines as microbicidal active substances” (Ciba Specialty Chemicals Corporation, priority 2001, dated 2006).
# Where two headings read alike, the source gives them in different places.
# Experiments:
# Type in all cases: cell-based
# [1] = system: Micrococcus luteus ATCC 9341; assay: Minimum inhibitory concentration (MIC), further microorganisms; conditions: Table 8, * = significant inhibition of growth, but not complete inhibition; for MIC: Micrococcus luteus, ATCC9341
# Experimental: (§1) Determination of the Minimum Inhibitory Concentration (MIC Value) in Microtitre Plates
# (§2) Casein-soybean flour-peptone broth for preparation of pre-cultures of test bacteria and yeast.
# (§3) Mycological slant agar for the pre-culture of moulds
# (§4) The test substances are pre-dissolved in dimethyl sulfoxide (DMSO) and tested in a dilution series of 1:2.
# (§5) Bacteria and yeast are cultured overnight in CASO broth, the mould is cultured overnight on mycological slant agar, and washed off using 10 ml of 0.85% sodium chloride solution (+0.1% Triton X-100).
# (§6) All the test organisms are adjusted to an organism count of 1–5×10^6 CFU/ml using 0.85% sodium chloride solution.
# (§7) The test substances are pre-pipetted into microtitre plates in amounts of 8 μl per well.
# (§8) Pre-diluted organism suspensions are diluted 1:100 in CASO broth (bacteria and yeast) or Sabouraud 2% glucose broth (mould) and are added in amounts of 192 μl per well to the test substances.
# (§9) The test batches are incubated for 48 hours at 37° C. (bacteria and yeast) or for 5 days at 28° C. (mould).
# (§10) After incubation, the growth is determined on the basis of the turbidity of the test batches (optical density) at 620 nm in a microplate reader.
# (§11) The minimum inhibitory concentration (MIC value) is the concentration of substance at which there is found (compared to the growth of the control) an appreciable inhibition of growth (≦20% growth) of the test organisms.
# (§12) One microtitre plate is used for each test organism and substance concentration. All the substances are tested in duplicate.
# [2] = system: S. epidermidis ATCC 12228; assay: as above; conditions: Table 8, * = significant inhibition of growth, but not complete inhibition; for MIC: Staphylococcus epidermidis, ATCC12228
# Experimental: as §1, §2, §3, §4, §5, §6, §7, §8, §9, §10, §11, §12
# [3] = system: Enterococcus hirae ATCC 10541; assay: as above; conditions: Table 8, * = significant inhibition of growth, but not complete inhibition; for MIC: Enterococcus hirae, ATCC10541
# Experimental: as §1, §2, §3, §4, §5, §6, §7, §8, §9, §10, §11, §12
# [4] = system: Epidermophyton floccosum DSM 10709; assay: as above; conditions: Table 8, * = significant inhibition of growth, but not complete inhibition; for MIC: Epidermophyton floccosum, DSM10709
# Experimental: as §1, §2, §3, §4, §5, §6, §7, §8, §9, §10, §11, §12
# [5] = system: Staphylococcus aureus ATCC 9144; assay: as above; conditions: Table 8, * = significant inhibition of growth, but not complete inhibition; for MIC: Staphylococcus aureus, ATCC9144
# Experimental: as §1, §2, §3, §4, §5, §6, §7, §8, §9, §10, §11, §12
# [6] = system: Trichophyton mentagrophytes ATCC 9533; assay: as above; conditions: Table 8, * = significant inhibition of growth, but not complete inhibition; for MIC: Trichophyton mentagrophytes, ATCC9533
# Experimental: as §1, §2, §3, §4, §5, §6, §7, §8, §9, §10, §11, §12
# [7] = system: Escherichia coli NCTC 8196; assay: Minimum inhibitory concentration (MIC) in microtitre plates; conditions: for MIC: Escherichia coli, NCTC8196
# Experimental: as §1, §2, §3
# (§13) Examples of Test Organisms:
# as §4, §5, §6, §7, §8, §9, §10, §11, §12
# [8] = system: Staphylococcus hominis DMS 20328; assay: as above; conditions: Table 7, 48 hours at 37° C., MIC = ≦20% growth compared to control; for MIC: Staphylococcus hominis, DMS20328, read-out: Minimum inhibitory concentration (MIC) S. hominis
# Experimental: as §1, §2, §3, §13, §4, §5, §6, §7, §8, §9, §10, §11, §12
# [9] = Table 7, 48 hours at 37° C., MIC = ≦20% growth compared to control
# [10] = Table 8, * = significant inhibition of growth, but not complete inhibition
# [11] = Table 7, 48 hours at 37° C., MIC = ≦20% growth compared to control, read-out: Minimum inhibitory concentration (MIC) E. coli
# [12] = Table 8, * = significant inhibition of growth, but not complete inhibition, read-out: Minimum inhibitory concentration (MIC) E. coli NCTC 8196
Structure (SMILES),Minimum inhibitory concentration (MIC) Micrococcus luteus ATCC 9341 [1],Minimum inhibitory concentration (MIC) S. epidermidis ATCC 12228 [2],Minimum inhibitory concentration (MIC) Enterococcus hirae ATCC 10541 [3],Minimum inhibitory concentration (MIC) Epidermophyton floccosum DSM 10709 [4],Minimum inhibitory concentration (MIC) Staphylococcus aureus ATCC 9144 [5],Minimum inhibitory concentration (MIC) Trichophyton mentagrophytes ATCC 9533 [6],"Minimum inhibitory concentration (MIC) E. coli [7, 9]","Minimum inhibitory concentration (MIC) E. coli NCTC 8196 [7, 10]",Minimum inhibitory concentration (MIC) S. hominis [8],MIC [1],MIC [2],MIC [3],MIC [4],MIC [5],MIC [6],"MIC [7, 11]","MIC [7, 12]",MIC [8]
CCCCCCCCNc1cc(C(F)(F)F)nc(-c2ccccn2)n1 [compound 33],<0.5 µg/mL,3.75 µg/mL,15 µg/mL,>60 µg/mL,15 µg/mL,>60 µg/mL,>80 µg/mL,>60 µg/mL,2.5 µg/mL,,,,,,,,,
CCCCCCCCCCNc1cc(C(C)C)nc(-c2ccccn2)n1 [compound 47],,,,,,,,,,< 0.5 µg/mL,3.75 µg/mL,3.75 µg/mL,60 µg/mL,7.5 µg/mL,60 µg/mL,> 80 µg/mL,> 60 µg/mL,5 µg/mL
CCCCCCCCNc1cc(C(C)C)nc(-c2ccccn2)n1 [compound 45],3.75 µg/mL,7.5 µg/mL,3.75 µg/mL,>60 µg/mL,7.5 µg/mL,>60 µg/mL,>120 µg/mL,>30 µg/mL,3.75 µg/mL,,,,,,,,,
CCCCCCCNc1cc(C(C)C)nc(-c2ccccn2)n1 [compound 44],,,,,,,,,,1 µg/mL,15 µg/mL,15 µg/mL,60 µg/mL,15 µg/mL,> 60 µg/mL,> 120 µg/mL,> 30 µg/mL,3.75 µg/mL
CCCCCCCNc1nc(-c2ccccn2)nc(C)c1C(C)C [compound 68],3.75 µg/mL,15 µg/mL,7.5 µg/mL,60* μg/mL,15 µg/mL,>60 µg/mL,>120 µg/mL,>30 µg/mL,7.5 µg/mL,,,,,,,,,
CC(C)c1cc(NCCCCCCCCCCCCN)nc(-c2ccccn2)n1 [compound 43],3.75 µg/mL,*15 μg/mL,30 µg/mL,>60 µg/mL,30 µg/mL,>60 µg/mL,60 µg/mL,>60 µg/mL,7.5 µg/mL,,,,,,,,,
CCCCCCCNc1cc(C(C)(C)C)nc(-c2ccccn2)n1 [compound 56],<0.5 µg/mL,3.75 µg/mL,1.9 µg/mL,*30 μg/mL,3.75 µg/mL,*30 μg/mL,>120 µg/mL,>60 µg/mL,3.75 µg/mL,,,,,,,,,
CCCCCCCCCNc1cc(C(C)(C)C)nc(-c2ccccn2)n1 [compound 58],<0.5 µg/mL,1.9 µg/mL,7.5 µg/mL,>60 µg/mL,*1.9 μg/mL,>60 µg/mL,>120 µg/mL,>60 µg/mL,3.75 µg/mL,,,,,,,,,
CCCCCCCCCNc1cc(C(C)C)nc(-c2ccccn2)n1 [compound 46],3.75 µg/mL,30 µg/mL,30 µg/mL,60 µg/mL,30 µg/mL,>60 µg/mL,>120 µg/mL,>60 µg/mL,3.75 µg/mL,,,,,,,,,
CCCCCCCCCCNc1cc(C(F)(F)F)nc(-c2ccccn2)n1 [compound 35],,,,,,,,,,< 0.5 µg/mL,7.5 µg/mL,7.5 µg/mL,> 60 µg/mL,7.5 µg/mL,> 60 µg/mL,> 120 µg/mL,> 60 µg/mL,3.75 µg/mL
CCCCCCCCNc1nc(-c2ccccn2)nc(C)c1CC [compound 9],3.75 µg/mL,*15 μg/mL,30 µg/mL,*15 μg/mL,15 µg/mL,*30 μg/mL,>120 µg/mL,>60 µg/mL,7.5 µg/mL,,,,,,,,,
NCCCCCCCCNc1cc(C(F)(F)F)nc(-c2ccccn2)n1 [compound 29],,,,,,,>80 µg/mL,,>80 µg/mL,,,,,,,,,
CCCCCCCCCCCCCCCCNc1cc(C(C)(C)C)nc(-c2ccccn2)n1 [compound 61],,,,,,,>120 µg/mL,,>120 µg/mL,,,,,,,,,
CCCCCCCCNc1cc(CCOC)nc(-c2ccccn2)n1 [compound 81],,,,,,,>120 µg/mL,,15 µg/mL,,,,,,,,,
CCCCCCCCCCCCNc1cc(CCOC)nc(-c2ccccn2)n1 [compound 84],,,,,,,120 µg/mL,,15 µg/mL,,,,,,,,,
NCCCCCCCCCCCCNc1cc(C(F)(F)F)nc(-c2ccccn2)n1 [compound 31],,,,,,,20 µg/mL,,5 µg/mL,,,,,,,,,
